Laboratory results: PubChem BioAssay (NCI)
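Dose response: 5 concentrations. Exposure: 48 h. Format: 96-well plates. Endpoint: linear interpolation; highest concentration if not reached. Definition used: TGI = concentration required for complete inhibition of growth.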

Assays:
Test in all cases: NCI-60 cell line screen, 48 h
[1] = test system: NCI-H460 lung
[2] = test system: U251 CNS
[3] = test system: HCC-2998 colon
[4] = test system: SK-MEL-5 melanoma
[5] = test system: MDA-N
[6] = test system: TK-10 renal
[7] = test system: PC-3 prostate
[8] = test system: NCI-H522 lung
[9] = test system: SK-MEL-28 melanoma
[10] = test system: HOP-62 NSCLC
[11] = test system: HCT-116 colon
[12] = test system: HL-60(TB) leukemia

| SMILES | TGI [1] [µM] | TGI [2] [µM] | TGI [3] [µM] | TGI [4] [µM] | TGI [5] [µM] | TGI [6] [µM] | TGI [7] [µM] | TGI [8] [µM] | TGI [9] [µM] | TGI [10] [µM] | TGI [11] [µM] | TGI [12] [µM] |
| --- | --- | --- | --- | --- | --- | --- | --- | --- | --- | --- | --- | --- |
| COC(=O)C1=C(C)C=C(N2CCOCC2)C(C(=O)OC)C1c1ccccc1 (stereo unspecified) | > 10 | > 10 | > 10 | > 10 | > 10 | > 10 | > 10 | > 10 | > 10 | > 10 | > 10 |  |
| NC12CCC(CC1=O)C2 (stereo unspecified) |  | > 100 | > 100 | > 100 | > 100 | > 100 | > 100 |  | > 100 | > 100 | > 100 | > 100 |
| CCOC(=O)c1[nH]cc(C)c1-c1ccc2c(-c3ccccc3)nc3ccccc3n12 | 12 | 11.8 | 9.97 | 6.29 | 14.1 | 15.2 | 12.8 | 4.79 | 14.3 | 29.9 | 12.5 |  |
| O=C(O)C12CCCCC1CCCC2 (stereo unspecified) | > 100 | > 100 | > 100 | > 100 |  | > 100 |  | > 100 | > 100 | > 100 | > 100 | > 100 |
| COc1ccc2[nH]c3c(C)c4ccnc(NCCCN(C)CCCNc5ccc6ncn7c8ccccc8c(=O)c5c67)c4c(C)c3c2c1 | 0.682 | 1.12 |  | 4.61 | 4.29 | 5.49 | 4.21 | 1.24 | 21.9 | 0.784 | 3.01 |  |
| Brc1ccc2c(c1)-c1nc3nc4c(cc3cc1CC2)CCc1ccc(Br)cc1-4 | > 100 | > 100 | > 100 | > 100 | > 100 | > 100 | > 100 | > 100 | > 100 | > 100 | > 100 |  |
| COC(=O)C(C/C=C(\C)c1ccc(Cl)cc1)C(C)=O (stereo unspecified) | > 100 | > 86.6 | > 100 | 51.7 |  |  |  | 92.3 | > 100 | > 100 | > 100 | 38.3 |
| CSC12c3cc(C)n(-c4ccccc4)c3CC(C)(C)CN1C(=O)C2Oc1ccccc1 (stereo unspecified) | > 100 | > 100 | > 100 | > 100 |  |  | > 100 |  | > 100 | > 100 | > 100 |  |
| COc1cccc(NC(=O)C(=O)C(C(=O)c2ccccc2F)C2OC(=O)c3ccccc32)c1 (stereo unspecified) | > 100 | 36.2 | 39.2 | > 100 |  | > 100 |  | 40.7 | > 100 | > 100 | 46.1 | 54.1 |
| CC(=O)C1=C(C)N(c2ccc(C)cc2)C2(O)C3=C(C(=O)c4ccccc4C3=O)C(O)=CC12Cl (stereo unspecified) | > 100 | > 100 | 31.6 | 22.2 |  | 97 | > 100 | 33.2 | 79.4 | > 100 | > 100 | > 100 |
